Experimental data reported in ChEMBL document CHEMBL4417626, “Post-Translational Regulation of Catalytic Activities of Cytochrome P450 46A1 and Uses Thereof” (2017).
Active and inactive are the calls of the source. The calls are words filed in the database; no cut-off is given here.

How the values were obtained:
[1] = target: T1, Cholesterol 24-hydroxylase (Homo sapiens, UniProt Q9Y6A2); test: Stimulation of full-length recombinant human CYP46A1 assessed as cholesterol hydroxylation at 43 uM using cholesterol as substrate in presence of NADPH cytochrome P450 oxidoreductase by gas chromatography-mass spectrometry
Target sequence in this assay (Q9Y6A2 whole entry, looked up): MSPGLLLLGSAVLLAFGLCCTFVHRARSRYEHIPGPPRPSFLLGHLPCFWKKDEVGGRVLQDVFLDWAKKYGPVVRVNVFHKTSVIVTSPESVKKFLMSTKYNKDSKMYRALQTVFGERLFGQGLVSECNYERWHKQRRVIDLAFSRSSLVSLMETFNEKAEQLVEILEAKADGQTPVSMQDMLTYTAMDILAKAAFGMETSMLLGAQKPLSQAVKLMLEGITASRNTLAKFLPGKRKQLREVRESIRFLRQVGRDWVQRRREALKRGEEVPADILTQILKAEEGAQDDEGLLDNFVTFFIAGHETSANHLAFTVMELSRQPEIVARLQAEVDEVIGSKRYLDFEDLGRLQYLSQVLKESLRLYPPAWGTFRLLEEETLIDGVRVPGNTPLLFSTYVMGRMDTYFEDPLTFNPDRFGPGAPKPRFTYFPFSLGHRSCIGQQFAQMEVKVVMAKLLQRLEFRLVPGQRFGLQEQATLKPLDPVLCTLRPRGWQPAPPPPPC

[2] = target: T2, Sterol 26-hydroxylase, mitochondrial (Homo sapiens) (UniProt Q02318); test: Binding affinity to full-length recombinant human CYP27A1 assessed as induction of spectral shift up to 100 uM by spectral binding study
T2 sequence (whole entry): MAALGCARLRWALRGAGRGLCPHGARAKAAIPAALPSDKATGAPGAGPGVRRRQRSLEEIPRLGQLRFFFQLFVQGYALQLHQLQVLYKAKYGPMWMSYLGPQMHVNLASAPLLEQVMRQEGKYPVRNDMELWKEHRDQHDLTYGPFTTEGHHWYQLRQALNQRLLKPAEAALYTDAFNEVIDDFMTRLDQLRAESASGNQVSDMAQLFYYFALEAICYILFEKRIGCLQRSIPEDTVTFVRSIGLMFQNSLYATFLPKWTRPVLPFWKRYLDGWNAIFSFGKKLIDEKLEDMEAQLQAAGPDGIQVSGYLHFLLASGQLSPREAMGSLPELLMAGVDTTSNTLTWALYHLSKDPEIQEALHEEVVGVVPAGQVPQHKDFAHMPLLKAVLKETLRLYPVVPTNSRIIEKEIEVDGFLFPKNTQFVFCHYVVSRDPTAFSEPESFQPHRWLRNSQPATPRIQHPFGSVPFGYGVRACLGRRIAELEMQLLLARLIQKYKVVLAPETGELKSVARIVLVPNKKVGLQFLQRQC

[3] = target: T1, Cholesterol 24-hydroxylase; test: Binding affinity to active site of full-length recombinant human CYP46A1 assessed as induction of type-II spectral response with minimum at 413 nm and maximum at 434 nm by spectral binding study
Target sequence in this assay (Q9Y6A2 whole entry, looked up): as the sequence (Q9Y6A2 whole entry, looked up) above

Mus musculus [4] = organism: Mus musculus; settings: C57/B6J, 60 mg/kg
Description: In-vivo inhibition of CYP46A1 in C57/B6J mouse brain assessed as reduction in lathosterol level at 60 mg/kg, ip dosed qd for 5 days by isotope dilution mass-spectrometry relative to control

Mus musculus [5] = test: In-vivo inhibition of CYP46A1 in C57/B6J mouse plasma assessed as reduction in 24S-hydroxy cholesterol at 60 mg/kg, ip dosed qd for 5 days by isotope dilution mass-spectrometry relative to control; type: functional; settings: 120 h
[6] = target: T3, Cholesterol side-chain cleavage enzyme, mitochondrial (Bos taurus, UniProt P00189); test: Binding affinity to active site of bovine CYP11A1 assessed as induction of type-II spectral response by spectral binding study; settings: cattle
T3 sequence (P00189 whole entry): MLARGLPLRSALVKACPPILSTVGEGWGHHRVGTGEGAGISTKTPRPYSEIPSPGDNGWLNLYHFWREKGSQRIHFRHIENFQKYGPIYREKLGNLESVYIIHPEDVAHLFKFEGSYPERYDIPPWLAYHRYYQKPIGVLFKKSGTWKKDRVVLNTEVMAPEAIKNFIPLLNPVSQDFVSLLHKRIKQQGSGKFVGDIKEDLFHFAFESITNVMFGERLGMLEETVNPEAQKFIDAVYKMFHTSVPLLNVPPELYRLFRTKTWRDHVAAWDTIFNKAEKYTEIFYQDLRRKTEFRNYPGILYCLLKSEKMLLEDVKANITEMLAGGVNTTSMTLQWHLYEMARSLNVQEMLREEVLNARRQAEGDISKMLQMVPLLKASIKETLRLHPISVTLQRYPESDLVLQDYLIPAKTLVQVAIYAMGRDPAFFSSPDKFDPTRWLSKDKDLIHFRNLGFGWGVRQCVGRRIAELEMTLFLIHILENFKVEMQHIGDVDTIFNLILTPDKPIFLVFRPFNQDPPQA

Mus musculus [7] = organism: Mus musculus; settings: C57/B6J, 75 mg/kg
Mus musculus [8] = organism: Mus musculus; settings: C57/B6J, 60 mg/kg; remark: listed apart in the source
[9] = target: T1, Cholesterol 24-hydroxylase; test: Inhibition of full-length recombinant human CYP46A1 assessed as cholesterol hydroxylation using cholesterol as substrate in presence of NADPH cytochrome P450 oxidoreductase by gas chromatography-mass spectrometry
Target sequence in this assay (Q9Y6A2 whole entry): as the sequence (Q9Y6A2 whole entry, looked up) above

[10] = target: T1, Cholesterol 24-hydroxylase; test: Binding affinity to full-length recombinant human CYP46A1 by spectral binding study
Target sequence in this assay (Q9Y6A2 whole entry, looked up): as the sequence (Q9Y6A2 whole entry, looked up) above

SMILES	Activity [1] [%]	other results
CC(=O)Nc1ccccc1O	103	
CC(=O)Nc1cccc(O)c1	87	
CCCCOc1ccc(NC(C)=O)cc1	107	
C[C@@H](c1ncncc1F)[C@](O)(Cn1cncn1)c1ccc(F)cc1F [VORICONAZOLE]		Activity [2]: inactive; Activity [3]: Active; inhibition (Mus musculus [4]): Active; inhibition in vivo at 60 mg/kg (Mus musculus [5]): 30%; Activity [6]: Active; inhibition (Mus musculus [7]): Active; inhibition (Mus musculus [8]): Active
CC(=O)Nc1ccc(O)cc1	132	
COc1ccc(NC(C)=O)cc1	100	
CC(=O)[C@H]1CC[C@H]2[C@@H]3CC=C4C[C@@H](OS(=O)(=O)O)CC[C@]4(C)[C@H]3CC[C@]12C		Ki [9]: 2.5 µM
CCOc1ccc(NC(=O)CC)cc1	101	
CCOc1ccc(N)cc1	50	
CC(=O)Nc1ccc(C)cc1	112	
CC(=O)[C@H]1CC[C@H]2[C@@H]3CC=C4C[C@@H](O)CC[C@]4(C)[C@H]3CC[C@]12C		Activity [10]: inactive
CC(=O)Nc1ccc(CO)cc1	112	
